# Assay results taken from patent publication US8143216B2, “Modified human growth hormone” (Ambrx, Inc., priority 2004, dated 2012).
# T1: human growth hormone receptor on IM-9 cells (Homo sapiens, UniProt P10912)
# T1 construct: host or cells: human IM-9 lymphocyte cell line
# T1 sequence (P10912 19-638): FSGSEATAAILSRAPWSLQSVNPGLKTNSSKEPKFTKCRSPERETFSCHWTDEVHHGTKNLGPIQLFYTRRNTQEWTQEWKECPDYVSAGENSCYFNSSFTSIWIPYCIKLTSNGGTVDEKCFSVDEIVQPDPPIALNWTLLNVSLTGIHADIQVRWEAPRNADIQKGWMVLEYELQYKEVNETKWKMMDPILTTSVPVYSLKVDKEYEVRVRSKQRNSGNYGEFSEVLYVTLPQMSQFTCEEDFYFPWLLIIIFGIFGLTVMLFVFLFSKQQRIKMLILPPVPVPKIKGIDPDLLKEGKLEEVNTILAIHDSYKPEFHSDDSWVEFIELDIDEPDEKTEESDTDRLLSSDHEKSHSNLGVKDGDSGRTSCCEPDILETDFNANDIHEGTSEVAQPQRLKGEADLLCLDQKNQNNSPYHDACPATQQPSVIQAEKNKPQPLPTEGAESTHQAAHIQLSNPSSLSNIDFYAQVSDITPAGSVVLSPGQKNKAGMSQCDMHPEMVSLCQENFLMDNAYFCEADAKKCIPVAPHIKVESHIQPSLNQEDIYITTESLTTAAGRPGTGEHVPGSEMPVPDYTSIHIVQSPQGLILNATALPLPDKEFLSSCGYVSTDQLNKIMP
# B1: rat GHR (L43R) extra cellular domain: extracellular domain of rat GH receptor (amino acids S29-T238) with L43 to R mutation (protein)
# chain: SSGKPRFTKCRSPERETFSCYWTEGDDHNLKVPGSIQLYYARRIAHEWTPEWKECPDYVSAGANSCYFNSSYTSIWIPYCIKLTTNGDLLDEKCFTVDEIVQPDPPIGLNWTLLNISLPGIRGDIQVSWQPPPSADVLKGWIILEYEIQYKEVNETKWKTMSPIWSTSVPLYSLRLDKEHEVRVRSRQRSFEKYSEFSEVLRVTFPQMDT
# modifications: left off: small tags and cut ends
# notes: extracellular domain of rat GH receptor (amino acids S29-T238) with L43 to R mutation
# Experiments:
# [1] = target: T1, human growth hormone receptor on IM-9 cells; assay: IM-9 pSTAT5 bioassay (STAT5 phosphorylation in IM-9 cells); type: cell-based; conditions: IM-9; WHO hGH is expressed as unity
# Excerpt: (§1) To further assess the biological activity of modified hGH polypeptides, an assay measuring a downstream marker of hGH's interaction with its receptor was used. The interaction of hGH with its endogenously produced receptor leads to the tyrosine phosphorylation of a signal transducer and activator of transcription family member, STAT5, in the human IM-9 lymphocyte cell line. Two forms of STAT5, STAT5A and STAT5B were identified from an IM-9 cDNA library. See, e.g., Silva et al., Mol. Endocrinol. (1996) 10(5):508-518.
# IM-9 cells were stimulated with hGH polypeptides of the present invention. The human IM-9 lymphocytes were purchased from ATCC (Manassas, Va.) and grown in RPMI 1640 supplemented with sodium pyruvate, penicillin, streptomycin (Invitrogen, Carlsbad, San Diego) and 10% heat inactivated fetal calf serum (Hyclone, Logan, Utah). The IM-9 cells were starved overnight in assay media (phenol-red free RPMI, 10 mM Hepes, 1% heat inactivated charcoal/dextran treated FBS, sodium pyruvate, penicillin and streptomycin) before stimulation with a 12-point dose range of hGH polypeptides for 10 min at 37° C. Stimulated cells were fixed with 1% formaldehyde before permeabilization with 90% ice-cold methanol for 1 hour on ice. The level of STAT5 phosphorylation was detected by intra-cellular staining with a primary phospho-STAT5 antibody (Cell Signaling Technology, Beverly, Mass.) at room temperature for 30 min followed by a PE-conjugated secondary antibody. Sample acquisition was performed on the FACS Array with acquired data analyzed on the Flowjo software (Tree Star Inc., Ashland, Oreg.). EC50 values were derived from dose response curves plotted with mean fluorescent intensity (MFI) against protein concentration utilizing SigmaPlot.
# The interaction of hGH with its receptor leads to the tyrosine phosphorylation of a signal transducer and activator of transcription family member, STAT5, in the human IM-9 lymphocyte cell line.
# [2] = system: rat GHR (L43R) expressing BAF3 cell line, 2E2-2B12-F4; assay: Proliferation by BrdU labeling; type: cell-based, mouse; conditions: WHO hGH is expressed as unity
# Experimental: All cell cultures were maintained at 37° C. in a humidified atmosphere of 5% CO2.
# [3] = system: rat model of growth hormone deficiency (hypophysectomized rats); assay: Efficacy studies of PEGylated hGH in a rat model of growth hormone deficiency (Example 34); type: in vivo
# Experimental: Preclinical efficacy studies were conducted in a rat model of growth hormone deficiency. In this model, the pituitary gland was surgically removed at approximately 4 weeks of age. The body weights of these hypophysectomized rats were monitored after surgery and animals showing less than 7.5 grams of bodyweight gain over a period of 7 days before the study were deemed successfully hypophysectomized and were randomized amongst the treatment groups. Animals showing more than 2.5 g of weight-loss were deemed not healthy and were excluded from the study. The study was initiated approximately 3 weeks after the surgery.
# Animals were dosed weekly (i.e. dosed on days 0 and 7) with either placebo or increasing PEG-^ahGH dose. An additional treatment group received Genotropin or placebo daily. Bodyweights and blood were collected predose and daily. All animals were sacrificed on day 14.
# For this parameter, the AUC is expressed as AUC above the efficacious IGF-1 plasma level. […] In the current study, the baseline IGF-1 level determined from the placebo group throughout the study was 128 ng/mL. An increase of 34 ng/mL over 128 ng/mL estimates an efficacious IGF-1 level of 162 ng/mL. Thus the AUC above 162 ng/mL was integrated. From this analysis, a dose-dependent increase in AUC above efficacious level was observed after each dose interval.
# The duration of IGF-1 levels induced above the estimated efficacious level after the first dose was determined. At the higher doses, the IGF-1 levels had not returned to baseline before the second dose. In these instances, the IGF-1 concentration was extrapolated to the efficacious level using the calculated terminal slopes. From this evaluation, a dose-dependent increase in duration of IGF-1 concentration above the efficacious level was evident.
# Bone growth was used as an additional pharmacodynamic measure to calculate the PEG-^ahGH ED50. Tibias were collected from each animal at the end of the study and immersion fixed in 10% neutral-buffered formalin followed by radiography. There was a clear dose-dependent increase in tibial bone length for the PEG-^ahGH treated animals. Moreover, there was a dose sparing effect compared to the daily Genotropin treated animals. The amount of Genotropin administered over a 7-day interval is equivalent to 2.1 mg/kg of PEG-^ahGH given weekly (i.e., days 0 and 7). An induction of tibial bone length increase similar to Genotropin is shown for PEG-^ahGH at 0.42 to 1.0 mg/kg. This represents a ≧50% dose-sparing effect for PEG-^ahGH when compared to Genotropin.
# [4] = Rat pharmacokinetics: PEG-ahGH plasma concentration in the rat disease model; type: in vivo
# Experimental: The same plasma samples collected for IGF-1 concentration determination were also assayed for PEG-^ahGH concentration. […] The duration of PEG-^ahGH persistence in the circulation, as well as the overall PEG-^ahGH AUC, increased in a dose-dependent manner. […] The PEG-^ahGH exposure results support the dose-dependent efficacy shown above.
# Plasma concentration versus time profiles for PEG-^ahGH administered subcutaneously at various doses in the rat disease model are shown in Example 34, above.
# [5] = target: T1, human growth hormone receptor on IM-9 cells; assay: Inhibition of WHO hGH induced phosphorylation of STAT5 in IM-9 cells; type: cell-based
# Excerpt: as §1
# [6] = On day 14, after 2 weekly s.c. doses
# [7] = after the first dose, curve fitting
# [8] = curve fitting of the AUC values from the first dose
# [9] = curve fitting of the Cmax values from the first dose
molecule,measurement,setting,value
F92pAF/G120R-30KPEG: hGH with G120R and p-acetyl-phenylalanine at position 92 linked to 30 kDa PEG,EC50,[1],> 200 µM
same,EC50,[2],> 200 µM
F92pAF/G120R: hGH with p-acetyl-phenylalanine substituted for F92 and a G120R substitution,EC50,[1],> 200 µM
same,EC50,[2],> 200 µM
"PEG-^ahGH: PEGylated hGH of SEQ ID NO:2, para-acetylphenylalanine at position 35 linked via an oxime bond to a linear 30 kDa PEG",bodyweight change on day 14,[3]; 1.0 mg/kg on days 0 and 7,27.02 (+/−3.97) %
same,bodyweight change on day 14 from day 0,[3]; 2.1 mg/kg on days 0 and 7,33.66 (+/−7.55) %
same,"ED50, Duration of IGF-1 Above Efficacious Level",[3]; After single s.c. dose,0.173 mg/kg
same,"ED50, IGF-1 AUC Above Efficacious Level",[3]; After single s.c. dose,0.909 mg/kg
same,"ED50, IGF-1 Induction: IGF-1 Cmax",[3]; After single s.c. dose,0.136 mg/kg
same,"Range of Effect (Eo-Emax), Duration of IGF-1 Above Efficacious Level",[3]; After single s.c. dose,0 to 8.84 days
same,"Range of Effect (Eo-Emax), IGF-1 AUC Above Efficacious Level","[3]; After single s.c. dose, AUC above 162 ng/mL","0-5,029.8 ng × hr/mL"
same,"ED50, Tibial Bone Length",[3]; [6],0.424 mg/kg
same,"Range of Effect (Eo-Emax), Percent Bodyweight Change",[3]; [6],7.17-50.65%
same,"Range of Effect (Eo-Emax), Tibial Bone Length",[3]; [6],30.52-33.67 mm
same,dose-sparing effect over Genotropin (percent bodyweight change),[3]; PEG-ahGH 1.0 mg/kg on days 0 and 7 vs Genotropin 0.3 mg/kg/day,~50%
same,dose-sparing effect when compared to Genotropin (tibial bone length),[3]; PEG-ahGH 0.42 to 1.0 mg/kg weekly vs daily Genotropin equivalent to 2.1 mg/kg weekly,≥ 50%
same,maximum duration of IGF-1 concentration above the efficacious level,[3]; [7],8.84 days
same,minimum duration of IGF-1 concentration above the efficacious level,[3]; [7],0 days
same,Emax IGF-1 AUC above efficacious level,[3]; [8],"5,029.8 ng×hr/mL"
same,Eo IGF-1 AUC above efficacious level,[3]; [8],0 ng·h/mL
same,maximum (Emax) IGF-1 Cmax,[3]; [9],"1,136.2 ng/mL"
same,minimum (Eo) IGF-1 Cmax,[3]; [9],136.7 ng/mL
same,maximum percent bodyweight change,"[3]; day 14, curve fitting",50.65%
same,minimum percent bodyweight change,"[3]; day 14, curve fitting",7.17%
same,plasma IGF-1 levels throughout the study,"[3]; dosed weekly (days 0 and 7) with increasing dose, FIG. 28","robust, dose-dependent increase in IGF-1"
same,plasma concentration (hGH ELISA),"[4]; hypophysectomized rats, PEG-ahGH s.c. on days 0 and 7, Genotropin daily",dose-dependent increase in PEG-^ahGH Cmax
same,apparent terminal half-life,"[4]; in rat, subcutaneous",7.05 (+/−0.47) hours
B1,competition against hGH stimulated pSTAT5 phosphorylation / antagonist potency,[5],compete effectively against hGH stimulated pSTAT5 phoshorylation
